Test: logP by LC-MS on reversed-phase columns (C 18), method [b], acidic range pH 2.7
Type: physicochemical
Details: for chromatographic logP: pH 2.7, log p
Protocol: The logP values were determined in accordance with EEC Directive 79/831 Annex V.A8 by HPLC (High Performance Liquid Chromatography) on reversed-phase columns (C 18), using the methods below:
[b] The LC-MS determination in the acidic range is carried out at pH 2.7 using the mobile phases 0.1% aqueous formic acid and acetonitrile (contains 0.1% formic acid), linear gradient from 10% acetonitrile to 95% acetonitrile.

[1] = method [b], LC-MS, acidic range pH 2.7

## CCOCCOc1cc(Nc2ncc(Cl)c(NC3CC3)n2)ccc1C [Example 48]
[1]
  log p: 2.23[b]

## COC(c1cccc(Nc2ncc(Cl)c(NC3CCC3)n2)c1)C(F)(F)F (centres unmarked) [Example 21]
pH 2.7
  log p: 2.99[b]

## CCCCCNc1nc(Nc2cccc(COC)c2)ncc1Cl [Example 147]
  chromatographic logP: 2.41

## COCc1cc(COC)cc(Nc2ncc(Cl)c(NC3CCC3)n2)c1 [Example 47]
pH 2.7
  log p: 2.06[b]

## COCc1cccc(Nc2ncc(Cl)c(N3CCCCCC3)n2)c1 [Example 139]
pH 2.7
  log p: 2.88[b]

## COCC(C)Oc1ccc(Nc2ncc(Cl)c(NC3CC3C(F)(F)F)n2)cc1 (centres unmarked) [Example 221]
pH 2.7
  log p: 2.48[b]

## C=C(C)CSc1cccc(Nc2ncc(Br)c(NC3CC3)n2)c1 [Example 3]
pH 2.7
  log p: 4.25[b]

## COCC(C)Oc1ccc(Nc2ncc(Br)c(NC3CC3)n2)cc1Cl (centres unmarked) [Example 4]
pH 2.7
  log p: 2.75[b]

## CCCN(C)c1nc(Nc2cccc(COC)c2)ncc1Cl [Example 141]
  chromatographic logP: 2.55

## COCCOc1cccc(Nc2ncc(Cl)c(NC3CC3C(F)(F)F)n2)c1 (centres unmarked) [Example 210]
pH 2.7
  log p: 2.66[b]

## FC(F)(F)c1cnc(Nc2cccc(COc3ccc4c(c3)OCO4)c2)nc1NC1CC1 [Example 227]
pH 2.7
  log p: 3.9[b]

## CCSC(C)c1cccc(Nc2ncc(Cl)c(NC3CCC3)n2)c1 (centres unmarked) [Example 11]
pH 2.7
  log p: 3.25[b]

## O=S(=O)(CCCl)c1cc(Nc2ncc(Cl)c(NC3CC3)n2)ccc1Cl [Example 49]
[1]
  log p: 2.67[b]

## CCS(=O)(=O)c1ccc(Nc2ncc(C(F)(F)F)c(NC3CC3)n2)cc1 [Example 55]
pH 2.7
  log p: 2.66[b]

## CCS(=O)(=O)c1ccc(Nc2ncc(Cl)c(NC3CC3)n2)cc1 [Example 54]
  chromatographic logP: 2.04

## CC[S+]([O-])C(C)c1cccc(Nc2ncc(C(F)(F)F)c(NC3CCCC3)n2)c1 (centres unmarked) [Example 42]
pH 2.7
  log p: 2.87[b]

## CS(=O)(=O)Cc1cccc(Nc2ncc(Cl)c(NC3CC3C(F)(F)F)n2)c1 (centres unmarked) [Example 222]
pH 2.7
  log p: 1.96[b]

## CCCC(C)Nc1nc(Nc2cccc(COC)c2)ncc1Cl (centres unmarked) [Example 143]
  chromatographic logP: 2.41

## COC(c1cccc(Nc2ncc(Br)c(NC3CCC3)n2)c1)C(F)(F)F (centres unmarked) [Example 10]
pH 2.7
  log p: 3[b]

## COCC(C)Oc1ccc(Nc2ncc(Cl)c(NC3CC3)n2)cc1C(F)(F)F (centres unmarked) [Example 72]
pH 2.7
  log p: 2.91[b]

## FC(F)(F)COCc1cccc(Nc2ncc(Cl)c(NC3CC3)n2)c1 [Example 224]
pH 2.7
  log p: 2.56[b]

## CCSC(C)c1cccc(Nc2ncc(Cl)c(NC3CC3CC)n2)c1 (centres unmarked) [Example 196]
[1]
  log p: 3.99[b]

## CCCC(C)S(=O)(=O)C(C)c1cccc(Nc2ncc(C(F)(F)F)c(NC3CC3)n2)c1 (centres unmarked) [Example 168]
pH 2.7
  log p: 3.47[b]

## CCN(c1nc(Nc2cccc(COC)c2)ncc1Cl)C(C)C [Example 140]
  chromatographic logP: 3

## COCc1cccc(Nc2ncc(Cl)c(NC3CC3C(F)(F)F)n2)c1 (centres unmarked) [Example 208]
pH 2.7
  log p: 2.64[b]

## C=C(C)CSc1cccc(Nc2ncc(Cl)c(NC3CC3)n2)c1 [Example 38]
pH 2.7
  log p: 3.59[b]

## CCOCCOCc1cccc(Nc2ncc(C(F)(F)F)c(NC3CC3)n2)c1 [Example 250]
  chromatographic logP: 3.17

## COCc1cccc(Nc2ncc(Br)c(NC3CC(C)C3)n2)c1 (centres unmarked) [Example 200]
[1]
  log p: 2.55[b]

## CCOCCOCc1cccc(Nc2ncc(C(F)(F)F)c(NC3CC3)n2)c1 [Example 253]
pH 2.7
  log p: 2.73[b]

## CC[S+]([O-])C(C)c1cccc(Nc2ncc(C(F)(F)F)c(NCC3CC3)n2)c1 (centres unmarked) [Example 44]
pH 2.7
  log p: 2.3[b]

## CCCN(c1nc(Nc2cccc(COC)c2)ncc1Cl)C1CC1 [Example 136]
pH 2.7
  log p: 3.68[b]

## CCS(=O)(=O)C(C)c1cccc(Nc2ncc(C(F)(F)F)c(NC3CCCC3)n2)c1 (centres unmarked) [Example 39]
pH 2.7
  log p: 3.27[b]

## CCC(C)CNc1nc(Nc2cccc(COC)c2)ncc1Cl (centres unmarked) [Example 145]
  chromatographic logP: 2.37

## FC(F)C(F)(F)COCc1cccc(Nc2ncc(Cl)c(NC3CC3)n2)c1 [Example 232]
pH 2.7
  log p: 2.69[b]

## CCSC(C)c1cccc(Nc2ncc(Cl)c(NC3CC3C(F)(F)F)n2)c1 (centres unmarked) [Example 223]
pH 2.7
  log p: 3.93[b]

Reference: US20110245284A1, “Alkoxy- and Alkylthio-Substituted Anilinopyrimidines” (Bayer CropScience AG, priority 2008, published 2011)
